Results taken from article PMC3735840 (ACS chemical biology, 2013).
pKd: −log10 of the molar value.

Tests used:
[1] = target: enzyme I (EI) (Escherichia coli, UniProt P08839, R465A); assay: NMR chemical shift titration; format: binding
[2] = target: enzyme I (EI) (Escherichia coli, UniProt P08839); assay: NMR chemical shift titration; format: binding
[3] = test system: C=C(OP(=O)(O)O)C(=O)O; assay: steady-state enzyme kinetics of the R465A EIC mutant with PEP; format: biochemical, Escherichia coli; details: Mg2+ active site of the C-terminal domain

Q: Which results are given for `O=C(O)CCC(=O)C(=O)O` [αKG, α-ketoglutarate]?
A: pKd [1]: ~2.17; pKd [2]: ~2.66

Q: How did the Km [3] turn out when “enzyme I (EI) (Escherichia coli K-12; R465A)” was run?
A: 1600 ± 400 µM
